Here are results for one molecule from US20180171304A1, “CONTINUOUSLY BIOPRINTED MULTILAYER TISSUE STRUCTURE” (ASPECT BIOSYSTEMS LTD., priority 2015, published 2018).

The test system of this test is muscle tube. Particulars: tube cultured for 14 days; contraction gradual over a 40 minute time period; FIG. 2.

Structures are written as SMILES.

Description: In one embodiment, described herein are multi-layered tubes of muscle tissue. The tubes are created using a layer-by-layer deposition process by which muscle cells are dispersed within a solidified biocompatible matrix and bioprinted in a continuous fiber. In one embodiment, the fiber is deposited in a ring-like pattern to form a layer. These layers are stacked to form tubes, the height of which may be varied in a controlled way by changing the number of layers. Preferably, the matrix composition is physiologically compatible such that it allows the muscle cells to fully differentiate into a contractile phenotype. At the time of bioprinting, the tube is not contractile. […]
After bioprinting, the muscle structure must be submersed in cell culture media and placed in a cell culture incubator with temperature and carbon dioxide level control. […] In the preferred embodiment contraction and relaxation are measured by visual observation of changes in the diameter of the tube. […] Alternatively, a camera with an appropriate level of magnification could be positioned above the smooth muscle tube such that video footage of the tube from a top down perspective is recorded. […] The change in area, radius, diameter or circumference of the muscle tube may be quantified. […]

For the molecule `NCCc1c[nH]cn1` [histamine], the “contraction of muscle tube (smaller diameter in contracted state)” value was “initiate contraction”.
